The values below come from patent publication US11414384B2, “P300/CBP hat inhibitors” (Constellation Pharmaceuticals, Inc., priority 2018, dated 2022).

Bounds are passed on as bounds.

Assay [1] addresses p300 HAT domain (residues 1287-1666) (Homo sapiens (Human), UniProt Q09472). In words: p300 HAT SPA assay (scintillation proximity assay, acetylation of biotinylated H3(1-21) peptide). It is filed as biochemical. As to conditions: p300 HAT domain; average of at least 2 replicate titrations; read-out: P300 HAT SPA IC50. The method, boiled down: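 Purified p300 HAT domain reaction transferred to streptavidin plates to capture biotinylated H3(1-21) peptide, incubated 1.5 hr at RT, and read by scintillation proximity. IC50 values derived from concentration-response data.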
A general note: In a scintillation proximity assay essentially only radioactivity close to the scintillant gives light.

The target of a further assay is full length p300 (Homo sapiens (Human), UniProt Q09472). In words: full length p300 SPA assay. It is filed as biochemical. To be noted: average of at least 2 replicate titrations, read-out: FL P300 IC50. The method, then: Reactions were initiated with 12.5 μL 2 μM biotinylated H3(1-21) peptide (New England Peptide) and run for 1 hr at RT, then quenched with 20 μL stop solution (200 mM Tris pH 8.0, 200 mM EDTA, 2M NaCl, 160 μM anacardic acid). 35 μL of the reaction volume was transferred to a 384-well streptavidin FlashPlate (PerkinElmer) using a Bravo liquid handler (Velocity 11) and incubated for 1.5 hr at RT. Plates were aspirated, washed with 95 μL wash buffer (15 mM Tris pH 8.5, 0.069 μM Brij-35), aspirated, sealed, and scintillation counts read on a Topcount (PerkinElmer). Data were analyzed in Genedata to determine inhibitor IC50 values.
Chain of full length p300 (Q09472 whole entry): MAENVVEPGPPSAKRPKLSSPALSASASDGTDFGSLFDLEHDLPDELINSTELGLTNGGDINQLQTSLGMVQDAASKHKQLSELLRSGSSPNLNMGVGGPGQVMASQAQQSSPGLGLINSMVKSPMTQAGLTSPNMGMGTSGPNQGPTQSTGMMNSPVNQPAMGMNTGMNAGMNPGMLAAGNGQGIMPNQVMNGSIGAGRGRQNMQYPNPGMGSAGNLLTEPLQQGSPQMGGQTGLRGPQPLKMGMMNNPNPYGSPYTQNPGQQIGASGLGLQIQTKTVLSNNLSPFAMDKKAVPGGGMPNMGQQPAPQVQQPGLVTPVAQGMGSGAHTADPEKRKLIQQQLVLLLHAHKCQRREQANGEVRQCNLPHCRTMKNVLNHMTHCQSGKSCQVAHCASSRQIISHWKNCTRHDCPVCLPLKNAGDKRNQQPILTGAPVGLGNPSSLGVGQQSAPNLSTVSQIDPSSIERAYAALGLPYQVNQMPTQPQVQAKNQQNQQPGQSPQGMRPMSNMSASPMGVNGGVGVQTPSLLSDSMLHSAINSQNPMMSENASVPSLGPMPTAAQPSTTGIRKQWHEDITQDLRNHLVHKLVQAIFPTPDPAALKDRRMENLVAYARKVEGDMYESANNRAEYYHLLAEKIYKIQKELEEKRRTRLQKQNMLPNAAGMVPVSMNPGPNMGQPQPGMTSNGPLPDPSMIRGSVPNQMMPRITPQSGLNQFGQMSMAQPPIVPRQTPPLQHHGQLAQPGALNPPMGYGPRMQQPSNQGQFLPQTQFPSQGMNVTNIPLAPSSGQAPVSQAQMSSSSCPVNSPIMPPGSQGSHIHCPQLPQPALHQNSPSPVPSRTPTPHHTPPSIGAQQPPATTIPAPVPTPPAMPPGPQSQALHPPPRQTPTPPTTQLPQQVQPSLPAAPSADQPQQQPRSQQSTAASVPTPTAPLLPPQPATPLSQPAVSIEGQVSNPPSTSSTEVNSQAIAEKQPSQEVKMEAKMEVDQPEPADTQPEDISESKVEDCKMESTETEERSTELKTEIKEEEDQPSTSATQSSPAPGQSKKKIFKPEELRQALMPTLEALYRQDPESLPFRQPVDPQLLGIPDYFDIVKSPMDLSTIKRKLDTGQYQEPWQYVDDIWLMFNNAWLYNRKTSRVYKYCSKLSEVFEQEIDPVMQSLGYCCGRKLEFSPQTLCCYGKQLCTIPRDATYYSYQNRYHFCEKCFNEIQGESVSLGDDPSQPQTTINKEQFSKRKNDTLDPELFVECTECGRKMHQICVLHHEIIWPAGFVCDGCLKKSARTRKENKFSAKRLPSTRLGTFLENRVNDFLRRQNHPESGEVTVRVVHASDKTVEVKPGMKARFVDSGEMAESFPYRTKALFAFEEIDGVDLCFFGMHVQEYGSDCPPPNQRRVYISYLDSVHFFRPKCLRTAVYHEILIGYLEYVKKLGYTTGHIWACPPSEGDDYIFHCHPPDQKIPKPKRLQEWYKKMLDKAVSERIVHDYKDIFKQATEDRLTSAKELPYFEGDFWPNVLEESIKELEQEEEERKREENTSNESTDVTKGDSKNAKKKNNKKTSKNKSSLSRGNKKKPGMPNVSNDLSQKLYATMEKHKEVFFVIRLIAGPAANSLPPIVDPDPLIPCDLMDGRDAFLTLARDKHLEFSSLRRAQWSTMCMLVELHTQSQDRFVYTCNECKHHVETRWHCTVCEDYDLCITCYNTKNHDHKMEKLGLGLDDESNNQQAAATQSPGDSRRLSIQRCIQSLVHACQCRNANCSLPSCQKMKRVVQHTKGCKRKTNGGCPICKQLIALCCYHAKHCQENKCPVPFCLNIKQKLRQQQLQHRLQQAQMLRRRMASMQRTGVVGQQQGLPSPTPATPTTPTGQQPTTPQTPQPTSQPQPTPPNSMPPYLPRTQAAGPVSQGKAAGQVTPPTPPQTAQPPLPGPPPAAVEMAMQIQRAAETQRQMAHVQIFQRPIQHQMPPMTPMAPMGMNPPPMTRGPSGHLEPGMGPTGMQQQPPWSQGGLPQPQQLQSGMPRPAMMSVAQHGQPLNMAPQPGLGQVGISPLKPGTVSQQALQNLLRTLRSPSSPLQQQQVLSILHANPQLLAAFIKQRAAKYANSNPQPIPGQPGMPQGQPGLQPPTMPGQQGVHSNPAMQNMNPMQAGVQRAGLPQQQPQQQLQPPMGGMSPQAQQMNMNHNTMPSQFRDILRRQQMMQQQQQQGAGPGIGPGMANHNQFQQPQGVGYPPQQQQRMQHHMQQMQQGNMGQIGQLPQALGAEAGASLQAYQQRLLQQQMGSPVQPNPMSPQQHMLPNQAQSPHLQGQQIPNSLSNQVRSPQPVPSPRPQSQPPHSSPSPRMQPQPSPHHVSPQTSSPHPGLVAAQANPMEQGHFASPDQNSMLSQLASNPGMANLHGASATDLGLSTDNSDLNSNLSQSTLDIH
The full length p300 SPA assay was run following the same protocol as p300 HAT SPA assay, but used 6 nM purified full length p300 (purchased from Active Motif) in place of the purified p300-HAT domain.

The subject of assay [2] is acetylation of chromatin at H3K18 (catalyzed by p300 and CBP) in HCT-116 cells. In words: H3K18Ac MSD cellular assay. It is filed as cell-based. To be noted: 2 hr treatment, average of at least 2 replicate titrations. The method, boiled down:
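HCT-116 cells plated overnight in RPMI + 10% FBS, treated with compound for 2 h at 37 °C, then lysed. H3K18ac measured by MSD sandwich immunoassay: total-histone capture antibody, anti-H3K18ac detection, Sulfo-Tag anti-rabbit electrochemiluminescence read.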

Chain of p300 HAT domain (residues 1287-1666) (Q09472 1287-1666): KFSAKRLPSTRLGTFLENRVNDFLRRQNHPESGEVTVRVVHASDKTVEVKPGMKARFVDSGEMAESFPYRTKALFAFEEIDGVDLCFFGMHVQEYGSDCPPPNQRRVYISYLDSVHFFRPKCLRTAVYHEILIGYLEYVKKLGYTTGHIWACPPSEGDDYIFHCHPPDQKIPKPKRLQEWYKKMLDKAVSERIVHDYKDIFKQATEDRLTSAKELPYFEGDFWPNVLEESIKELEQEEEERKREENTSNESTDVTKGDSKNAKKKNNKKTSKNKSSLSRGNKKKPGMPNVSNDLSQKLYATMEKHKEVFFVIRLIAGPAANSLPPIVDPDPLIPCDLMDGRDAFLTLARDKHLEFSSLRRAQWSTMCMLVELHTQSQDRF

The term IC50 denotes the concentration at which inhibition is half-maximal. Regarding `CNC(=O)c1cccc2c(C(=O)C(NCCc3ccc(Cl)cc3Cl)c3ccccc3)c[nH]c12` (single isomer, unassigned) [147 Isomer 2], the IC50 worked out at 4.91 µM in assay [1] and 0.336 µM at full length p300.

As to `NS(=O)(=O)c1ccc(CCNC(C(=O)c2c[nH]c3cccnc23)c2ccccc2)cc1` (racemic) [Example 30, (rac)-4-(2-((2-oxo-1-phenyl-2-(1H-pyrrolo[3,2-b]pyridin-3-yl)ethyl)amino)ethyl) benzenesulfonamide], the IC50 in assay [1] was 32.3 µM; on full length p300, 0.732 µM.

`COCCNC(=O)c1ccc2c(C(=O)C(NCCc3ccc(Cl)cc3Cl)c3ccccc3)c[nH]c2c1` (single isomer, unassigned) [154 Isomer 1]: the values for the IC50 (in assay [1]; at full length p300) were 0.325 µM and 0.0377 µM, respectively.

Take `O=C(c1n[nH]c2ccccc12)C(NCCc1ccc(Cl)cc1)c1ccccc1` (single isomer, unassigned) [47 Isomer 2]: the IC50 in assay [1] stood at 20.3 µM; at full length p300 it was 1.3 µM.

Regarding `NS(=O)(=O)c1ccc(CCNC(C(=O)c2c[nH]c3cc(Cl)ccc23)c2ccccc2)cc1` (single isomer, unassigned) [13 Isomer 1], the IC50 turned out to be 18.1 µM in assay [1] and 0.472 µM on full length p300.

In the case of `COc1ccc(CCN[C@H](C(=O)c2c[nH]c3c(C(C)C)cccc23)c2ccccc2)cc1` (single isomer, unassigned) [145 Isomer 1], the IC50 in assay [1] stood at 18.5 µM; on full length p300 it was 0.593 µM.

As to `O=C(c1c[nH]c2ccccc12)C(NCCc1cccnc1)c1ccccc1` (single isomer, unassigned) [10 Isomer 2], the IC50 in assay [1] came out at 19.2 µM; at full length p300, 0.711 µM.

`O=C(c1c[nH]c2cc(-c3ccccn3)ccc12)C(NCCc1ccc(F)cc1)c1ccccc1` (single isomer, unassigned) [105 Isomer 2]: the IC50 worked out at 1.38 µM in assay [1] and 0.0251 µM at full length p300.

Consider `NS(=O)(=O)c1ccc(CCNC(C(=O)c2c[nH]c3cnccc23)c2ccccc2)cc1` (single isomer, unassigned) [32 Isomer 2], for which the results for the IC50 (in assay [1]; at full length p300) were 12.9 µM and 0.744 µM, respectively.

As for `O=C(c1cnc2ccccn12)C(NCCc1ccc(Cl)cc1)c1ccccc1` (single isomer, unassigned) [46 Isomer 1], the IC50 worked out at 9 µM in assay [1] and 13.1 µM at full length p300.

In the case of `Cc1[nH]c2ccccc2c1C(=O)C(NCCc1ccc(S(N)(=O)=O)cc1)c1ccccc1` (single isomer, unassigned) [16 Isomer 2], the IC50 in assay [1] was 6.98 µM; at full length p300 it was 0.378 µM.

With `NS(=O)(=O)c1ccc(CCNC(C(=O)c2c[nH]c3ncccc23)c2ccccc2)cc1` (single isomer, unassigned) [33 Isomer 1], the results for the IC50 (in assay [1]; at full length p300) were > 60 µM and 1.75 µM, respectively.

As usually defined, the EC50 is the concentration giving half of the maximal effect. A lower EC50 goes with an effect from little substance. `CN1CCN(c2ccc3c(C(=O)C(NCCc4ccc(C#N)cc4)c4ccccc4)c[nH]c3c2)CC1` (single isomer, unassigned) [122 Isomer 2]: the IC50 in assay [1] came to 0.044 µM. In assay [2] (Homo sapiens, HCT-116, 2 h), this compound came in with an EC50 of 0.0975 µM.

In the case of `CC(Cc1ccc(Cl)cc1)NC(C(=O)c1c[nH]c2ccccc12)c1ccccc1` (single isomer, unassigned) [27 Isomer 1], the IC50 in assay [1] is 0.636 µM. In assay [2] (Homo sapiens, HCT-116, 2 h), this compound registered an EC50 of 0.681 µM.

In the case of `Cc1cnc(-c2ccc3c(C(=O)C(NCCc4ccc(Cl)cc4)c4ccccc4)c[nH]c3c2)[nH]1` (single isomer, unassigned) [109 Isomer 2], in assay [1], the half-inhibitory concentration (IC50) stood at 0.195 µM. This compound registered an EC50 in assay [2] (Homo sapiens, HCT-116, 2 h) of 0.267 µM.

`O=C(c1c[nH]c2cc(-c3ccccn3)ccc12)C(NCCc1ccc(Cl)cc1)c1ccccc1` (single isomer, unassigned) [108 Isomer 1]: the half-inhibitory concentration (IC50) in assay [1] was 1.6 µM. In assay [2] (Homo sapiens, HCT-116, 2 h), this compound registered an EC50 of 0.928 µM.

Regarding `CC(CNC(C(=O)c1c[nH]c2ccccc12)c1ccccc1)c1ccc(Cl)cc1` (single isomer, unassigned) [26 Isomer 2], the IC50 in assay [1] is 4.56 µM. Besides, a half-maximal response in assay [2] (EC50) required 2.53 µM.

Consider `Cn1cc(-c2ccc3c(C(=O)C(NCCc4ccc(C#N)cc4)c4ccccc4)c[nH]c3c2F)cn1` (single isomer, unassigned) [103 Isomer 2], for which the IC50 in assay [1] stood at 0.118 µM. In assay [2] (Homo sapiens, HCT-116, 2 h), the 50% effective concentration (EC50) turned out to be 0.0685 µM.
